In one test the target is Mu-type opioid receptor (Homo sapiens, UniProt P35372). The test is described as follows: DRUGMATRIX: Opiate mu (OP3, MOP) radioligand binding (ligand: [3H] Diprenorphine). Format: cell membranes, CHO-K1, Membrane. To be noted: cho-k1; Not Active = under 50% inhibition at 10 µM.
For another test, the target named is Histamine H2 receptor (Homo sapiens, UniProt P25021). Format: cell membranes, CHO-K1, Membrane. Conditions: cho-k1. Also: in other assays of this panel Not Active means under 50% inhibition at 10 µM.
In test [1] the target is T1, Alpha-2A adrenergic receptor (Homo sapiens, UniProt P08913). Also: in other assays of this panel Not Active means under 50% inhibition at 10 µM.
T1 sequence (P08913 whole entry): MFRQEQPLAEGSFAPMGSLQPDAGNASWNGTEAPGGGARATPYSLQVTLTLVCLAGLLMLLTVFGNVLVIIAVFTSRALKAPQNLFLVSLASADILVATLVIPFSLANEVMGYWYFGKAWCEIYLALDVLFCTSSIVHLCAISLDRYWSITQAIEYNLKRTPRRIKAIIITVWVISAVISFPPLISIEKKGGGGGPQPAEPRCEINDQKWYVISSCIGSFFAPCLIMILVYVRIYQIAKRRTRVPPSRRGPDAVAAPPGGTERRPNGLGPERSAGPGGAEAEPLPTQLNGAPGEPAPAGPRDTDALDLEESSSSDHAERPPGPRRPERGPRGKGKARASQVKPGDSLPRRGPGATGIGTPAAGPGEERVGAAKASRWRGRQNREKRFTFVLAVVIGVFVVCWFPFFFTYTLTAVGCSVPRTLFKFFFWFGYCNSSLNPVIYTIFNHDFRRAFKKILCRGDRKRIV
Format: cell membranes, Sf9, Membrane.

Test [2] concerns the target Kappa-type opioid receptor (Homo sapiens, UniProt P41145). Kind of test: DRUGMATRIX: Opiate kappa (OP2, KOP) radioligand binding (ligand: [3H] Diprenorphine). Format: cell membranes, HEK293, Membrane. Conditions: hek293; Not Active = under 50% inhibition at 10 µM.
Test [3] concerns the target Sodium-dependent dopamine transporter (Homo sapiens, UniProt Q01959). The test is described as follows: DRUGMATRIX: Dopamine Transporter radioligand binding (ligand: [125I] RTI-55). Format: cell membranes, CHO-K1, Membrane. Conditions: cho-k1; Not Active = under 50% inhibition at 10 µM.
Test [4] can be described thus: DRUGMATRIX: Interleukin IL-1 radioligand binding (ligand: [125I] interleukin 1beta). Format: cell membranes, Membrane. Conditions: nih3t3; Not Active = under 50% inhibition at 10 µM.

Histamine H2 receptor, sequence (P25021 whole entry): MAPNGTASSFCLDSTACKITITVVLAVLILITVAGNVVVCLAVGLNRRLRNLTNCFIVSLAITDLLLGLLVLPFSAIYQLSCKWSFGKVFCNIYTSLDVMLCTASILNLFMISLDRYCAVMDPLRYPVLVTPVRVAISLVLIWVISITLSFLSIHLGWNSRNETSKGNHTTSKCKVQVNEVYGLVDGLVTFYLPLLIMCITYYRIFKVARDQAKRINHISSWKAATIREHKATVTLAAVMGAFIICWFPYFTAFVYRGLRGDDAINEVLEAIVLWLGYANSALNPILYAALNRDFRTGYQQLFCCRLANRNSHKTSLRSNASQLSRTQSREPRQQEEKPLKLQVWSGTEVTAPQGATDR
Mu-type opioid receptor, sequence (P35372 whole entry): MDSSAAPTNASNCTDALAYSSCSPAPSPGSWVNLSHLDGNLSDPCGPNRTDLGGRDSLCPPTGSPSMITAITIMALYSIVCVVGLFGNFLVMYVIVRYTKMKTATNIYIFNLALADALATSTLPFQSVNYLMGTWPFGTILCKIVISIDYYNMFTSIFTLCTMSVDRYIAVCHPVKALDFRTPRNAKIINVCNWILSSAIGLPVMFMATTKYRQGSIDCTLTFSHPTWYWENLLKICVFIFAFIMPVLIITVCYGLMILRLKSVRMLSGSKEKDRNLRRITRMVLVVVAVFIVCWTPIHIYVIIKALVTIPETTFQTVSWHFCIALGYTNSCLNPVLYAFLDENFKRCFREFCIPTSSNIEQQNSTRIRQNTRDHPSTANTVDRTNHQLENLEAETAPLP
Kappa-type opioid receptor, sequence (P41145 whole entry): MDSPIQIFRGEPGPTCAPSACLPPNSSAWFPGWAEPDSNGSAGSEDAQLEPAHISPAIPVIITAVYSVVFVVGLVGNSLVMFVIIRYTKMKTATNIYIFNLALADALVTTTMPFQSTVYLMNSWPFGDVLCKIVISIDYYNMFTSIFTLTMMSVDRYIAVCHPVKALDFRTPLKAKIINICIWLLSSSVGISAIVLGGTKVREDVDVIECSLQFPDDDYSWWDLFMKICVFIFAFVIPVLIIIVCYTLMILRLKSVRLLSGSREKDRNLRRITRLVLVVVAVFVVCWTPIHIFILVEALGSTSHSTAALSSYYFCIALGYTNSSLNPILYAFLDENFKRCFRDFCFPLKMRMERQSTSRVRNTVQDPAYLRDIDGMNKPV
Sodium-dependent dopamine transporter, sequence (Q01959 whole entry): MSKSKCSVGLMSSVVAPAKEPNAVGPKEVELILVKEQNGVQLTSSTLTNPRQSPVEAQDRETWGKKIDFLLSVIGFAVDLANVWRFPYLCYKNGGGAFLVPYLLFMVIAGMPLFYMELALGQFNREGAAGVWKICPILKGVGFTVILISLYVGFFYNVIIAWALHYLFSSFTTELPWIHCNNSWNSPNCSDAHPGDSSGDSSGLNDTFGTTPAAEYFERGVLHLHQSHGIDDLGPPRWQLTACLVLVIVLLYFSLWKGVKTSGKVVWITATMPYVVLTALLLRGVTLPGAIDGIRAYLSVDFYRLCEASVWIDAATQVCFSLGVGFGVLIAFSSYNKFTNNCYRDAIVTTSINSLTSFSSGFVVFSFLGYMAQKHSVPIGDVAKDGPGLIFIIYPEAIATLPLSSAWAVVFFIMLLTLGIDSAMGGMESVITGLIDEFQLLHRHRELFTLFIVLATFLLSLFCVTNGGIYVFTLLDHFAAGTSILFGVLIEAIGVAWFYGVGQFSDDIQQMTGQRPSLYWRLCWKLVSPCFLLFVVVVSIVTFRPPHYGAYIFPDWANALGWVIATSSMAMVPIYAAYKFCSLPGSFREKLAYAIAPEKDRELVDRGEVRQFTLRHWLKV

For `CC(C)(C#N)c1cc(Cn2cncn2)cc(C(C)(C)C#N)c1` [ANASTROZOLE], the IC50 entry (on Mu-type opioid receptor; against Histamine H2 receptor; in test [1] (sf9); in test [2]; in test [3]; in test [4]) was “Not Active” in each case. Moreover, the Ki (as a rule, a measure of affinity in units of concentration, obtained from inhibition or displacement) in test [4] was “Not Active”.

With `CC(=O)[C@]1(O)Cc2c(O)c3c(c(O)c2[C@@H](O[C@H]2C[C@H](N)[C@H](O)[C@H](C)O2)C1)C(=O)c1ccccc1C3=O` [IDARUBICIN], the IC50 result (at Mu-type opioid receptor; against Histamine H2 receptor; in test [1] (sf9); in test [2]; in test [3]; in test [4]) was “Not Active” throughout. In addition, in test [4], the Ki result is listed as “Not Active”.

On to `O=C(O)c1ccccc1` [BENZOIC ACID], for which the half-inhibitory concentration (IC50) entry (on Mu-type opioid receptor; on Histamine H2 receptor; in test [1] (sf9); in test [2]; in test [3]; in test [4]) was “Not Active” in each case. Moreover, the Ki entry in test [4] is listed as “Not Active”.

As for `O=C(Nc1ccc(Cl)c(Cl)c1)c1cc(Cl)cc(Cl)c1O` [3,3',4',5-TETRACHLOROSALICYLANILIDE], the half-maximal inhibitory concentration (IC50) result (at Mu-type opioid receptor; against Histamine H2 receptor; in test [1] (sf9); in test [2]; in test [3]; in test [4]) was “Not Active” each time. Besides, the Ki result in test [4] is “Not Active”.

For `CC(C)NCC(O)COc1ccc(CC(N)=O)cc1` (stereo unspecified) [ATENOLOL], the 50% inhibitory concentration (IC50) entry (on Mu-type opioid receptor; on Histamine H2 receptor; in test [1] (sf9); in test [2]; in test [3]; in test [4]) was “Not Active” throughout. Besides, the Ki result in test [4] is listed as “Not Active”.

With `OC[C@H]1O[C@@H]2O[C@H]3[C@H](O)[C@@H](O)[C@@H](O[C@H]4[C@H](O)[C@@H](O)[C@@H](O[C@H]5[C@H](O)[C@@H](O)[C@@H](O[C@H]6[C@H](O)[C@@H](O)[C@@H](O[C@H]7[C@H](O)[C@@H](O)[C@@H](O[C@H]1[C@H](O)[C@H]2O)O[C@@H]7CO)O[C@@H]6CO)O[C@@H]5CO)O[C@@H]4CO)O[C@@H]3CO` [ALFADEX], the half-maximal inhibitory concentration (IC50) result (at Mu-type opioid receptor; at Histamine H2 receptor; in test [1] (sf9); in test [2]; in test [3]; in test [4]) was “Not Active” in each case. In test [4], the inhibitory constant (Ki) entry is listed as “Not Active”.

For `CC(=O)Nc1ccc2c(c1)Cc1ccccc1-2` [2-ACETYLAMINOFLUORENE], the IC50 (usually the concentration at which inhibition is half-maximal) on Mu-type opioid receptor was “Not Active”; against Histamine H2 receptor, “Not Active”; in test [1] (read-out: IC50) it was 21.1 µM; in test [2] it was “Not Active”; in test [3] it was “Not Active”; in test [4], “Not Active”. Moreover, the inhibitory constant (Ki) in test [1] (read-out: Ki) was 7.9 µM; in test [4], “Not Active”.

Turning to `CCN1CCN(c2cc3c(cc2F)c(=O)c(C(=O)O)cn3C2CC2)CC1` [ENROFLOXACIN], the 50% inhibitory concentration (IC50) result (at Mu-type opioid receptor; on Histamine H2 receptor; in test [1] (sf9); in test [2]; in test [3]; in test [4]) was “Not Active” each time. In test [4], the inhibitory constant (Ki) result is recorded as “Not Active”.

With `O=C(O)CO` [GLYCOLIC ACID], the half-inhibitory concentration (IC50) result (at Mu-type opioid receptor; against Histamine H2 receptor; in test [1] (sf9); in test [2]; in test [3]; in test [4]) was “Not Active” each time. Also, in test [4], the Ki result is recorded as “Not Active”.

Turning to `CN(Cc1cc(Br)cc(Br)c1N)C1CCCCC1` [BROMHEXINE], the IC50 entry (on Mu-type opioid receptor; at Histamine H2 receptor; in test [1] (sf9); in test [2]; in test [3]; in test [4]) was “Not Active” in each case. In addition, the Ki entry in test [4] is “Not Active”.

Consider `CC12CCC(CC1)C(C)(C)O2` [EUCALYPTOL], for which the IC50 entry (on Mu-type opioid receptor; at Histamine H2 receptor; in test [1] (sf9); in test [2]; in test [3]; in test [4]) was “Not Active” each time. Also, the Ki entry in test [4] is “Not Active”.

In the case of `C[C@@H]1[C@H](O)[C@@H](C)/C=C/C=C/C=C/C=C/C=C/C=C/C=C/[C@H](O[C@@H]2O[C@H](C)[C@@H](O)[C@H](N)[C@@H]2O)C[C@@H]2O[C@](O)(C[C@@H](O)C[C@@H](O)[C@H](O)CC[C@@H](O)C[C@@H](O)CC(=O)O[C@H]1C)C[C@H](O)[C@H]2C(=O)O` [AMPHOTERICIN B], the IC50 result (on Mu-type opioid receptor; at Histamine H2 receptor; in test [1] (sf9); in test [2]; in test [3]; in test [4]) was “Not Active” in each case. Besides, in test [4], the Ki entry is “Not Active”.

Regarding `CCN(CCO)CCCC(C)Nc1ccnc2cc(Cl)ccc12` (stereo unspecified) [HYDROXYCHLOROQUINE], the half-inhibitory concentration (IC50) result (at Mu-type opioid receptor; at Histamine H2 receptor; in test [1] (sf9); in test [2]; in test [3]; in test [4]) was “Not Active” throughout. Further, the Ki entry in test [4] was “Not Active”.

For the compound `CC12CCC(CC1=O)C2(C)C` (stereo unspecified) [CAMPHOR], the IC50 result (on Mu-type opioid receptor; on Histamine H2 receptor; in test [1] (sf9); in test [2]; in test [3]; in test [4]) was “Not Active” throughout. In addition, the inhibition constant Ki entry in test [4] is “Not Active”.

With `CCC1(c2ccccc2)C(=O)NC(=O)NC1=O` [PHENOBARBITAL], the IC50 entry (at Mu-type opioid receptor; against Histamine H2 receptor; in test [1] (sf9); in test [2]; in test [3]; in test [4]) was “Not Active” in each case. The Ki result in test [4] is “Not Active”.

Consider `C[N+](C)(C)CCOP(=O)([O-])OC[C@H](O)CO`, for which the IC50 entry (on Mu-type opioid receptor; against Histamine H2 receptor; in test [1] (sf9); in test [2]; in test [3]; in test [4]) was “Not Active” each time. Also, in test [4], the inhibitory constant (Ki) entry is listed as “Not Active”.

For the compound `Oc1ccccc1` [PHENOL], the half-inhibitory concentration (IC50) result (on Mu-type opioid receptor; on Histamine H2 receptor; in test [1] (sf9); in test [2]; in test [3]; in test [4]) was “Not Active” in each case. Besides, the Ki result in test [4] is listed as “Not Active”.

For `Nc1nc(F)nc2c1ncn2[C@@H]1O[C@H](CO)[C@@H](O)[C@@H]1O` [FLUDARABINE], the IC50 result (at Mu-type opioid receptor; on Histamine H2 receptor; in test [1] (sf9); in test [2]; in test [3]; in test [4]) was “Not Active” each time. Moreover, the Ki entry in test [4] is recorded as “Not Active”.

Consider `c1ccc(Cn2ccnc2)cc1`, for which the IC50 entry (at Mu-type opioid receptor; against Histamine H2 receptor; in test [1] (sf9); in test [2]; in test [3]; in test [4]) was “Not Active” each time. Moreover, in test [4], the inhibition constant Ki entry is “Not Active”.

With `Nc1nc(N)c2nc(CNc3ccc(C(=O)N[C@@H](CCC(=O)O)C(=O)O)cc3)cnc2n1` [AMINOPTERIN], the IC50 entry (at Mu-type opioid receptor; on Histamine H2 receptor; in test [1] (sf9); in test [2]; in test [3]; in test [4]) was “Not Active” throughout. Moreover, in test [4], the inhibition constant (Ki) entry is given as “Not Active”.

These data come from ChEMBL document CHEMBL1909046, “DrugMatrix in vitro pharmacology data”.
